Like-named read-outs stand apart in the source and are kept apart here.
What was measured:
Format in all cases: binding
[1] = target: T1, HeLa cell extract proteins (Homo sapiens, UniProt P07195)
T1 construct: endogenous in cells; host or cells: HeLa cell extract

[2] = target: T2, HeLa cell extract proteins (Homo sapiens, UniProt P07237)
T2 construct: endogenous in cells; host or cells: HeLa cell extract

[3] = target: T3, HeLa cell extract proteins (Homo sapiens, UniProt P08237)
T3 construct: endogenous in cells; host or cells: HeLa cell extract
T3 sequence (P08237 1-780): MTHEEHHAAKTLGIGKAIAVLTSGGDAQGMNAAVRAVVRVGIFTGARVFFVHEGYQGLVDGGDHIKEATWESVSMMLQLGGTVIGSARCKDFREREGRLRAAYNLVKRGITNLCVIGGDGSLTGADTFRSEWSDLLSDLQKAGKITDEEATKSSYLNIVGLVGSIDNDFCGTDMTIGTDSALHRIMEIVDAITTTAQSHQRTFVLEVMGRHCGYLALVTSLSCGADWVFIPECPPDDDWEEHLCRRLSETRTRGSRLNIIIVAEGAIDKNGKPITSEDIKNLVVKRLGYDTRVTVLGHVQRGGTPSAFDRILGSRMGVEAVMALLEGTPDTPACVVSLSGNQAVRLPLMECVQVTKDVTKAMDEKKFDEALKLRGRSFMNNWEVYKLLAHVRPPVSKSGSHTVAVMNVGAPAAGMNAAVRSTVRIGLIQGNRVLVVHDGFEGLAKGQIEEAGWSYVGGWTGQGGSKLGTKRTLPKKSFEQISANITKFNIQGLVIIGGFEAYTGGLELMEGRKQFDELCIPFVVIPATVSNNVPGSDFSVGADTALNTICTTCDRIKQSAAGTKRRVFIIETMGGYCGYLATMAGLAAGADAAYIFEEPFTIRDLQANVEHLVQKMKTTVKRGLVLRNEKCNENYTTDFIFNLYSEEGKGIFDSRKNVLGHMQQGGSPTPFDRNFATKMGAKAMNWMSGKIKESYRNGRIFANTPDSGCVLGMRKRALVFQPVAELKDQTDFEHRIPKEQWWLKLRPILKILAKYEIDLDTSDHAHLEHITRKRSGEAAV

[4] = target: T4, HeLa cell extract proteins (Homo sapiens, UniProt P10809)
T4 construct: endogenous in cells; host or cells: HeLa cell extract

[5] = target: T5, HeLa cell extract proteins (Homo sapiens, UniProt P13995)
T5 construct: endogenous in cells; host or cells: HeLa cell extract
T5 sequence (P13995 36-350): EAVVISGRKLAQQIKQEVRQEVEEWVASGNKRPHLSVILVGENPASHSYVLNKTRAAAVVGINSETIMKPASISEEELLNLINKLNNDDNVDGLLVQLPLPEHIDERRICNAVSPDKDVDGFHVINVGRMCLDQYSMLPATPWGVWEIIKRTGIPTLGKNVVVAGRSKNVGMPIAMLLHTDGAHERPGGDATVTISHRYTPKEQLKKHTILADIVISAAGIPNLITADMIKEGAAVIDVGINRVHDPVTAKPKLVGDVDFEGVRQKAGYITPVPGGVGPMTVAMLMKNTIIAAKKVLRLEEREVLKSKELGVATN

[6] = target: T6, HeLa cell extract proteins (Homo sapiens, UniProt P16219)
T6 construct: endogenous in cells; host or cells: HeLa cell extract
T6 sequence (P16219 25-412): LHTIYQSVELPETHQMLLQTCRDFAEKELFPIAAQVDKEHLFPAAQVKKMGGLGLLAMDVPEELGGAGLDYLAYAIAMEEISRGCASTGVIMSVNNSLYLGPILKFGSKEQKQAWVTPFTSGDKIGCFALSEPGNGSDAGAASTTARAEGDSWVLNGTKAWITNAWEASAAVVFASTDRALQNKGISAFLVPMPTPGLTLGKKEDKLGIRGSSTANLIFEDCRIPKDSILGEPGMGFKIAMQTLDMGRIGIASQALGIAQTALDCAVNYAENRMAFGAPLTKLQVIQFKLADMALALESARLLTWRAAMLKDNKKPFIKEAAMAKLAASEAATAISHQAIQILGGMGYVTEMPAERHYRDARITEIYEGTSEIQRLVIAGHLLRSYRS

[7] = target: T7, HeLa cell extract proteins (Homo sapiens, UniProt P28070)
T7 construct: endogenous in cells; host or cells: HeLa cell extract

[8] = target: T8, HeLa cell extract proteins (Homo sapiens, UniProt P51149)
T8 construct: endogenous in cells; host or cells: HeLa cell extract

[9] = target: T9, HeLa cell extract proteins (Homo sapiens, UniProt P55795)
T9 construct: endogenous in cells; host or cells: HeLa cell extract
T9 sequence (P55795 1-449): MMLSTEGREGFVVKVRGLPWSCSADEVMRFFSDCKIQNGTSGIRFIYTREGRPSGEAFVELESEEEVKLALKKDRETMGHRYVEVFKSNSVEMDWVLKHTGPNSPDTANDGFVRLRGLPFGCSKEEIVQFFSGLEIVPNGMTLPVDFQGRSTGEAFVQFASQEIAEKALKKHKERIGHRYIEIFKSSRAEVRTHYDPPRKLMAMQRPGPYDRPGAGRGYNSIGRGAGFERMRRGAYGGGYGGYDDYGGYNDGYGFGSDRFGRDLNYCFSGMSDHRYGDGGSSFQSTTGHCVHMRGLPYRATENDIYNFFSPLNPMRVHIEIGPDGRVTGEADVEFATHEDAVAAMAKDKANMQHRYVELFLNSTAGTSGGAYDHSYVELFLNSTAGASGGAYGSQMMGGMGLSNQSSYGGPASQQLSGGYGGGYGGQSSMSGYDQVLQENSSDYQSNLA

[10] = target: T10, HeLa cell extract proteins (Homo sapiens, UniProt Q8NEW0)
T10 construct: endogenous in cells; host or cells: HeLa cell extract
T10 sequence (Q8NEW0 1-376): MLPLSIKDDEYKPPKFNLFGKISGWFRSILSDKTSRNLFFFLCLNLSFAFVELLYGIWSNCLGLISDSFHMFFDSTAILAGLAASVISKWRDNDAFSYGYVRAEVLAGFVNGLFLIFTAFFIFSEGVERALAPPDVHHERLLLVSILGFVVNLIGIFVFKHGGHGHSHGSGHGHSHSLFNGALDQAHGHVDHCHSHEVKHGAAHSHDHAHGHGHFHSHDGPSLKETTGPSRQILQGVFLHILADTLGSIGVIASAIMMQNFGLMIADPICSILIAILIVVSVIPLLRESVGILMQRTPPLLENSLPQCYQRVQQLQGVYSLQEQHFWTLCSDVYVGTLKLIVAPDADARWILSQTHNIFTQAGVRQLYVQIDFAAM

[11] = HeLa, protein ACADS (SHORT-CHAIN SPECIFIC ACYL-COA DEHYDROGENASE, MIT[…])
[12] = HeLa, protein SLC30A7 (SOLUTE CARRIER FAMILY 30 MEMBER 7)
[13] = HeLa, protein LDHB (L-LACTATE DEH[…] CHAIN.)

T8 sequence (P51149 whole entry): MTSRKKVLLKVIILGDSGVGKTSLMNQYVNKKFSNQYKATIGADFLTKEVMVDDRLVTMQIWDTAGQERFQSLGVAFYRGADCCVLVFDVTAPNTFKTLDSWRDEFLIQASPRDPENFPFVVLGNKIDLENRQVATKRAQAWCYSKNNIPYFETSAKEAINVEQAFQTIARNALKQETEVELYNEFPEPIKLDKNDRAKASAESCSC
T4 sequence (P10809 27-573): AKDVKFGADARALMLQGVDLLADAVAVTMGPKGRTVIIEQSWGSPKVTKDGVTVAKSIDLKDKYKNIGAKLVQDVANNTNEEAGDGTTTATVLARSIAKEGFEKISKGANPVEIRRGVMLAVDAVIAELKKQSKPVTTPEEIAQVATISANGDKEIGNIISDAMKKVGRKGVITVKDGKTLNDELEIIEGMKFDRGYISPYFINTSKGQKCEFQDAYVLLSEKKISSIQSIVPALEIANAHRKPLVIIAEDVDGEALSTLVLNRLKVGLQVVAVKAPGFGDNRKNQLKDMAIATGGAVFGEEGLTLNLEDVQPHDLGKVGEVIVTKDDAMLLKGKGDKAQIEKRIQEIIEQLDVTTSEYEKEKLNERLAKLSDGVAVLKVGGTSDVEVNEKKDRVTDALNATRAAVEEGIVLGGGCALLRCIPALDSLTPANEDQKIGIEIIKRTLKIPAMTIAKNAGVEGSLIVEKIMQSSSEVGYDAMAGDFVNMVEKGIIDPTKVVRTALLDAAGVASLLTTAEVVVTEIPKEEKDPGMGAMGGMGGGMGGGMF
T7 sequence (P28070 46-264): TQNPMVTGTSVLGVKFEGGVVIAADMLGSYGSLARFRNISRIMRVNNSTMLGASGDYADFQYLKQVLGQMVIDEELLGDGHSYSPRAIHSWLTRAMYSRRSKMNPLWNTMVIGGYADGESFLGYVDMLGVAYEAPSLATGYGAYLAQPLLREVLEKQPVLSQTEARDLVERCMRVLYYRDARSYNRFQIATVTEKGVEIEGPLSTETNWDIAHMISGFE
T1 sequence (P07195 whole entry): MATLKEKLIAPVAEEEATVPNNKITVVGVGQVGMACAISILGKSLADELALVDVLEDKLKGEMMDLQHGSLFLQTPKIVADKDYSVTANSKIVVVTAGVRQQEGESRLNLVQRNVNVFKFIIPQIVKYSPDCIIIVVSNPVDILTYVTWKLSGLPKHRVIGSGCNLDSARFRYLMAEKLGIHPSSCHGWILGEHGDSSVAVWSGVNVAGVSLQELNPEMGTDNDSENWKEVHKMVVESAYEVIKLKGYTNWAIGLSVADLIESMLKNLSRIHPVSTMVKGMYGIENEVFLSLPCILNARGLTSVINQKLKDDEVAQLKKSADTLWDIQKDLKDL
T2 sequence (P07237 18-508): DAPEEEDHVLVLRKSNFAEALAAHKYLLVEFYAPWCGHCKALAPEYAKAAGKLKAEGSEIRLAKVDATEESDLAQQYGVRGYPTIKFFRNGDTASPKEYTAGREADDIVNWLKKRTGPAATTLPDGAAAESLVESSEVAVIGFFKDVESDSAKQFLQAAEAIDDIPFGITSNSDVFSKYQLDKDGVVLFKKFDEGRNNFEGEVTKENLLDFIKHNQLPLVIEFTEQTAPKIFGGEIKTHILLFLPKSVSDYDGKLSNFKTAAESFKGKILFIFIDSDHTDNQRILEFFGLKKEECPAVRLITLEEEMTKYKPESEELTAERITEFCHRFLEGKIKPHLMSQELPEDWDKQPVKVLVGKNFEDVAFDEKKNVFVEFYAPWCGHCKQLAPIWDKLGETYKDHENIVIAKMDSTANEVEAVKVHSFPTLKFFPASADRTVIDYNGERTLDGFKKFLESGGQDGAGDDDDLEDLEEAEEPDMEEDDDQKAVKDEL

`Nc1nc2c(c(=O)[nH]1)N(C=O)C(CNc1ccc(C(=O)N[C@@H](CCC(=O)O)C(=O)O)cc1)CN2` (stereo partly shown) [LEU, leucovorin] was tested, and the “fold changes relative to vehicle control” value ([1]; HeLa, captured protein LDHB) was 1.21, the “fold changes relative to vehicle control” value ([2]; HeLa, protein P4HB) was 0.96 and the “fold changes relative to vehicle control” value ([3]; HeLa, captured protein PFKM) was 1.01. The “fold changes relative to vehicle control” value ([4]; HeLa, protein HSPD1) was 1.12, the “fold changes relative to vehicle control” value ([5]; HeLa, captured protein MTHFD2) was 0.7 and the “fold changes relative to vehicle control” value [6, 11] was 1.06. For the same compound, the “fold changes relative to vehicle control” value ([7]; HeLa, protein PSMB4) was 0.98, the “fold changes relative to vehicle control” value ([8]; protein RAB7A, HeLa) was 0.99 and the “fold changes relative to vehicle control” value ([9]; HeLa, captured protein HNRNPH2) was 0.9. The “fold changes relative to vehicle control” value [10, 12] was 1.06.

For `NCCCNc1ccc(C(=O)NC(CCC(=O)O)C(=O)O)cc1` (stereo not shown) [compound 7], the “fold changes relative to vehicle control” value ([1]; HeLa, captured protein LDHB) was 0.96, the “fold changes relative to vehicle control” value ([2]; HeLa, protein P4HB) was 0.92 and the “fold changes relative to vehicle control” value ([3]; HeLa, captured protein PFKM) was 1.02. The “fold changes relative to vehicle control” value ([4]; HeLa, protein HSPD1) was 1, the “fold changes relative to vehicle control” value ([5]; HeLa, captured protein MTHFD2) was 1.02 and the “fold changes relative to vehicle control” value [6, 11] was 1.04. The “fold changes relative to vehicle control” value ([7]; HeLa, protein PSMB4) was 0.95, the “fold changes relative to vehicle control” value ([8]; protein RAB7A, HeLa) was 1.05 and the “fold changes relative to vehicle control” value ([9]; HeLa, captured protein HNRNPH2) was 0.91. The “fold changes relative to vehicle control” value [10, 12] was 1.

With `CCCCCCOc1cccc(Cc2cnc(N)nc2N)c1` [compound 2] the “fold changes relative to vehicle control” value ([1]; HeLa, protein LDHB (L-LACTATE DEHYDROGENASE B CHAIN.)) was 2.97 fold, the “fold changes relative to vehicle control” value ([2]; protein P4HB, HeLa) was 1.79 and the “fold changes relative to vehicle control” value ([3]; captured protein PFKM, HeLa) was 1.2. For the same compound, the “fold changes relative to vehicle control” value ([4]; protein HSPD1, HeLa) was 1.71, the “fold changes relative to vehicle control” value ([5]; protein MTHFD2, HeLa) was 0.95 and the “fold changes relative to vehicle control” value ([6]; protein ACADS, HeLa) was 1.1. The “fold changes relative to vehicle control” value ([7]; protein PSMB4, HeLa) was 1.21, the “fold changes relative to vehicle control” value ([8]; protein RAB7A, HeLa) was 1.58 and the “fold changes relative to vehicle control” value ([9]; protein HNRNPH2, HeLa) was 0.96. The “fold changes relative to vehicle control” value ([10]; HeLa, protein SLC30A7) was 1.

With `CCCCCCOc1ccc(Cc2cnc(N)nc2N)cc1` [compound 1] the “fold changes relative to vehicle control” value [1, 13] was 1.75 fold, the “fold changes relative to vehicle control” value ([2]; protein P4HB, HeLa) was 1.31 and the “fold changes relative to vehicle control” value ([3]; captured protein PFKM, HeLa) was 1.15. For the same compound, the “fold changes relative to vehicle control” value ([4]; protein HSPD1, HeLa) was 1.32, the “fold changes relative to vehicle control” value ([5]; protein MTHFD2, HeLa) was 0.09 and the “fold changes relative to vehicle control” value ([6]; protein ACADS, HeLa) was 0.91. The “fold changes relative to vehicle control” value ([7]; protein PSMB4, HeLa) was 1.12, the “fold changes relative to vehicle control” value ([8]; protein RAB7A, HeLa) was 1.21 and the “fold changes relative to vehicle control” value ([9]; protein HNRNPH2, HeLa) was 0.93. The “fold changes relative to vehicle control” value ([10]; HeLa, protein SLC30A7) was 1.06.

With `Nc1nc2cccc(-c3ccccc3)c2n1Cc1ccc(Cl)c(Cl)c1` [compound 3] the “fold changes relative to vehicle control” value [1, 13] was 0.94 fold, the “fold changes relative to vehicle control” value ([2]; protein P4HB, HeLa) was 1 and the “fold changes relative to vehicle control” value ([3]; captured protein PFKM, HeLa) was 1.01. The “fold changes relative to vehicle control” value ([4]; protein HSPD1, HeLa) was 1.03, the “fold changes relative to vehicle control” value ([5]; protein MTHFD2, HeLa) was 1.03 and the “fold changes relative to vehicle control” value ([6]; protein ACADS, HeLa) was 0.99. For the same compound, the “fold changes relative to vehicle control” value ([7]; protein PSMB4, HeLa) was 1.05, the “fold changes relative to vehicle control” value ([8]; protein RAB7A, HeLa) was 1.12 and the “fold changes relative to vehicle control” value ([9]; protein HNRNPH2, HeLa) was 1.05. For the same compound, the “fold changes relative to vehicle control” value ([10]; HeLa, protein SLC30A7) was 1.07.

`NCCOCCOCC(=O)Nc1nc2ncc(CNc3ccc(C(=O)NC(CCC(=O)O)C(=O)O)cc3)nc2c(=O)[nH]1` (stereo not shown) [compound 6] was tested, and the “fold changes relative to vehicle control” value ([1]; HeLa, captured protein LDHB) was 1.42, the “fold changes relative to vehicle control” value ([2]; HeLa, protein P4HB) was 1.19 and the “fold changes relative to vehicle control” value ([3]; HeLa, captured protein PFKM) was 1.02. The “fold changes relative to vehicle control” value ([4]; HeLa, protein HSPD1) was 1.21, the “fold changes relative to vehicle control” value ([5]; HeLa, captured protein MTHFD2) was 1.06 and the “fold changes relative to vehicle control” value [6, 11] was 1.07. The “fold changes relative to vehicle control” value ([7]; HeLa, protein PSMB4) was 1.04, the “fold changes relative to vehicle control” value ([8]; protein RAB7A, HeLa) was 1.31 and the “fold changes relative to vehicle control” value ([9]; HeLa, captured protein HNRNPH2) was 0.83. For the same compound, the “fold changes relative to vehicle control” value [10, 12] was 0.94.

`Nc1nc2[nH]cc(CCc3ccc(C(=O)N[C@@H](CCC(=O)O)C(=O)O)cc3)c2c(=O)[nH]1` [PTX, pemetrexed] was tested, and the “fold changes relative to vehicle control” value [1] was 1.35, the “fold changes relative to vehicle control” value [2] was 1.03 and the “fold changes relative to vehicle control” value [3] was 0.98. The “fold changes relative to vehicle control” value [4] was 1.14, the “fold changes relative to vehicle control” value [5] was 1.05 and the “fold changes relative to vehicle control” value [6] was 1.09. For the same compound, the “fold changes relative to vehicle control” value [7] was 0.97, the “fold changes relative to vehicle control” value [8] was 1.12 and the “fold changes relative to vehicle control” value [9] was 0.82. For the same compound, the “fold changes relative to vehicle control” value [10] was 0.97.

Reference: publication PMC6199744, “Development of Chemical Proteomics for the Folateome and Analysis of the Kinetoplastid Folateome” (ACS Infectious Diseases, 2018)
